In patent publication US20010039287A1, “AROMATIC SULFONE HYDROXAMIC ACID METALLOPROTEASE INHIBITOR” (priority 1997, published 2001):

Legend:
[1] = tested on: neovascularization of the corneal stroma; test: In vivo angiogenesis assay (corneal micropocket, bFGF pellet); settings: mouse corneal micropocket, 50 mpk bid po, day five, area of neovascularization vs control
Protocol: The study of angiogenesis depends on a reliable and reproducible model for the stimulation and inhibition of a neovascular response. The corneal micropocket assay provides such a model of angiogenesis in the cornea of a mouse. See, A Model of Angiogenesis in the Mouse Cornea; Kenyon, B M, et al., Investigative ophthalmology & Visual Science, July 1996, Vol. 37, No. 8.
In this assay, uniformLy sized Hydron™ pellets containing bFGF and sucralfate were prepared and surgically implanted into the stroma mouse cornea adjacent to the temporal limbus. […]
Mice were dosed on a daily basis for the duration of the assay. […] At day five, the degree of angiogenic inhibition was scored by viewing the neovascular progression with a slit lamp microscope.
The mice were anesthetized and the studied eye was once again proptosed. The maximum vessel length of neovascularization, extending from the limbal vascular plexus toward the pellet was measured. In addition, the contiguous circumferential zone of neovascularization was measured as clock hours, where 30 degrees of arc equals one clock hour. The area of angiogenesis was calculated as follows. […]
Five to six mice were utilized for each compound in each study. The studied mice were thereafter compared to control mice and the difference in the area of neovascularization was recorded as an averaged value. […]

[2] = tested on: PC-3 human pancreatic cancer cells (ATCC CRL 1435); test: In vivo PC-3 tumor reduction; parameters: species or system mouse; settings: PC-3 tumor in Balb/c nu/nu mice, day 25-30
Protocol: PC-3 human pancreatic cancer eclls (ATCC CRL 1435) were grown to 90% confluence in F12/MEM (Gibco) containing 7% FBS (Gibco). Cells were mechanically harvested using a rubber scraper, and then washed twice with cold medium. The resulting cells were resuspended in cold medium with 30% matrigel (Collaborative Research) and the cell-containing medium was maintained on ice until used.
Balb/c nu/nu mice at 7-9 weeks of age were anesthetized with avertin [2,2, 2-tribromethanol/t-amyl alcohol (1 g/l mL) diluted 1:60 into phosphate-buffered sline] and 3-5×10^6 of the above cells in 0.2 mL of medium were injected into the left flank of each mouse. Cells were injected in the morning, whereas dosing with an inhibitor began at 6 PM. The animals were gavaged BID from day zero (cell injection day) to day 25-30, at which time the animals were euthanized and tumors weighed.
Compounds were dosed at 10 mg/mL in 0.5% methylcellulose/0.1% polysorbate 80 to provide a 50 mg/kg (mpk) dose twice each day, or diluted to provide a 10 mg/kg (mpk) dose twice each day. Tumor measurements began on day 7 and continued every third or fourth day until completion of the study. Groups of ten mice were used in each study and nine to ten survived. Each group of mice so studied constitutes an “n” value of one, so that “n” values greater than one represent multiple studies whose averaged result is provided in the table. […]

[3] = tested on: solid tumor cancers (colorectal, pancreatic, ovarian, prostate); settings: cited from earlier work

SMILES: CNC(=O)[C@@H](NC(=O)[C@H](CC(C)C)[C@H](O)C(=O)NO)C(C)(C)C [marimastat]
- Inhibition of Angiogenesis [1]: 48 (n = 6) percent
- Average Percentage Reduction In Tumor Weight ([2]; 10 mpk BID gavage): <5 Percentage
- Average Percentage Reduction In Tumor Weight ([2]; 50 mpk BID gavage): 39 (n = 2) Percentage
- most common drug-related toxicity ([3]; clinical trials, patients): musculoskeletal pain and stiffness
- cancer-specific antigens used as surrogate markers for biological activity ([3]; patients with advanced, rapidly progressive, treatment-refractory solid tumor cancers): dose-related reduction in the rise of cancer-specific antigens
